Assay results published in article PMC8350020, “Stepwise binding of inhibitors to human cytochrome P450 17A1 and rapid kinetics of inhibition of androgen biosynthesis” (The Journal of Biological Chemistry, 2021).
Read-outs that look alike come from different tables or passages of the source.

How the values were obtained:
human P450 17A1 [1] = details: cited from earlier work; for IC50: read-out: IC50, 17α-OH pregnenolone to DHEA (lyase)
human P450 17A1 [2] = details: read-out: IC50, progesterone 17α-hydroxylation, cited from earlier work
human P450 17A1 [3] = target: T1, human P450 17A1 (Homo sapiens, UniProt P05093); experiment: Rates of onset of inhibition, pre-steady-state rapid chemical quench; assay type: biochemical
T1 sequence (P05093 24-508 limits assumed): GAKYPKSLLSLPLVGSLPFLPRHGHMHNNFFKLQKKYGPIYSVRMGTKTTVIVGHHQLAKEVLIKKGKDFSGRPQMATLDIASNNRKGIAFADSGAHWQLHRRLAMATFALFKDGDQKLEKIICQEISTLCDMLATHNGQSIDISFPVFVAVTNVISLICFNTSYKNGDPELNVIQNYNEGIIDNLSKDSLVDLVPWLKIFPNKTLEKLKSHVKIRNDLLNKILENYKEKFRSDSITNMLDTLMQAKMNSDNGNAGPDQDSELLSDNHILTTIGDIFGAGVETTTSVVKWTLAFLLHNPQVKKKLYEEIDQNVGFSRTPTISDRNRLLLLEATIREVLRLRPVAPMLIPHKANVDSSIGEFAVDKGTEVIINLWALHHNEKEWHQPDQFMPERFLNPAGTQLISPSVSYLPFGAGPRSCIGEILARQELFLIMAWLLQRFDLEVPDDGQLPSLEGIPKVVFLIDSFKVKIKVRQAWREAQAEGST
Protocol: In the control experiment, ES is not inhibited (no I present). […] Both progesterone 17α-hydroxylation (Fig. 10) and 17α-OH pregnenolone lyase activity (Fig. 11) were measured without and with all five inhibitors.
Reactions were performed using a KinTek RQF-3 rapid quench apparatus (KinTek) with the reaction loop set at position 7 and the temperature at 37 °C. The RQF-3 is a rapid mixing device that initiates a reaction by forcing equal volumes of two mixing syringes into a reaction loop. After pausing for the indicated incubation time, the reaction is then quenched and expelled from the apparatus. The reaction mixture (containing enzyme and substrate [in CH3OH, 1% (v/v)]) was initiated with an equal volume (19 μl) of NADPH solution (2 mM), effectively halving the initial concentration of all reaction components. When appropriate, inhibitor (in CH3OH) was added to the NADPH solution (in CH3OH), taking care to keep the total CH3OH composition of the final reaction to 1% (v/v). The substrates progesterone (5 μM) and 17α-OH pregnenolone (1.5 μM) were allowed to react for different lengths of time (0.1–5 and 2–60 s, respectively) prior to quenching with 160 μl of 1 M HCl. Five replicates of each time point were collected into vials to increase the detection sensitivity of the respective product at the shorter time points.

human P450 17A1 [4] = target: T1, human P450 17A1; experiment: IC50 determination, progesterone 17α-hydroxylation (17α-OH progesterone formation), reconstituted P450 17A1/POR/b5; assay type: biochemical; details: for IC50: IC50 (95% CI limits), progesterone 17α-hydroxylation, steady-state, 0.02 μM P450 17A1, 5 μM progesterone, 37 °C; for Ki: IC50 = Ki [1 + (S/Km)] for competitive inhibition, Km from Ref. 37, read-out: Predicted Ki, progesterone 17α-hydroxylation
Protocol: (§1) A 0.5 ml reaction was prepared in most cases by the reconstitution of P450 17A1 (0.02 μM), POR (0.5 μM), and b5 (0.5 μM) with freshly sonicated L-α-dilauroyl-sn-glycero-3-phosphocholine (30 μM). The mixture incubated on ice for 10 min, followed by the addition of potassium phosphate buffer (to a final concentration of 50 mM), substrate (5 μM progesterone or 1.5 μM 17α-OH pregnenolone ([37])), and water. Stock progesterone was prepared in CH3OH and was diluted to a final concentration of 5 μM (0.5% CH3OH, v/v). […] Reactions (in duplicate) were preincubated for 5 min at 37 °C with shaking before being initiated with an NADPH-generating system composed of 0.5 mM NADP^+, two units of yeast glucose 6-phosphate dehydrogenase ml^−1, and 10 mM glucose 6-phosphate ([56]). The inhibitor abiraterone was added immediately prior to the 5-min preincubation stage because of the rapid onset of inhibition. Reactions (5 min) were quenched by immersion in an ice bath, with the addition of CH2Cl2 (2.0 ml), and were centrifuged (10^3g, 10 min) to separate layers. The organic (bottom) phases were removed (1.6 ml) and transferred into clean vials, and the solvent was removed under a stream of nitrogen. Reactions were resuspended in a CH3CN/sodium acetate mixture (25 mM, pH 3.7) (1:1, v/v) and were transferred to vials for UPLC analysis. […] Substrate and product were detected using a Waters Acuity photodiode array system at 240 nm. Data were processed using the MassLynx software, and percent conversion of substrate to product was calculated. The data were normalized to the uninhibited reaction, which was set at 100% activity.

human P450 17A1 [5] = target: T1, human P450 17A1; experiment: KinTek Explorer modeling of kinetics of inhibition of progesterone 17α-hydroxylation; assay type: biochemical; details: fit of Figure 10E data; E 2 μM, S 5 μM progesterone, I 1 μM; read-out: Kd as a competitive inhibitor (value giving adequate model fits)
Protocol: The results of the progesterone 17α-hydroxylation abiraterone inhibition experiment in Figure 10E were analyzed further using KinTek Explorer software (KinTek; Fig. 13).
The lines were fit to the model shown, with the indicated rate and dissociation constants. The enzyme concentration (E) was 2 μM, substrate concentration (S) was 5 μM, and inhibitor concentration (I, abiraterone) was 1 μM. Fitting was done with KinTek Explorer.

human P450 17A1 [6] = target: T1, human P450 17A1; experiment: IC50 determination, 17α-OH pregnenolone lyase activity (DHEA formation), reconstituted P450 17A1/POR/b5; assay type: biochemical; details: for Ki: IC50 = Ki [1 + (S/Km)] for competitive inhibition, Km from Ref. 37, read-out: Predicted Ki, 17α-OH pregnenolone lyase; for Ratio (17-hydroxylation/lyase) of IC50: This work
Protocol: In the case of catalytic assays, the products of each reaction were redissolved in a solution of CF3CO2H (7 mM, prepared as a 0.1% v/v solution in C2H5OH) and dansyl hydrazine (10 mM, prepared in CH3OH) in amber glass vials (sealed and capped) and were allowed to react overnight (16 h) in the dark at room temperature (23 °C). The reaction was quenched with acetone (50 mM) followed by incubation at room temperature for 30 min. NaOH was added to 100 mM, and the products of the reactions were extracted into CH2Cl2 (1.0 ml), of which 0.8 ml of the organic (lower) layers was transferred to fresh amber vials and dried under a stream of nitrogen. The residues were redissolved in a mixture of a 0.1% HCO2H solution (aqueous) and CH3CN (0.1 ml; 1:1 dilution, v/v) and transferred to ultra performance LC (UPLC) vials for analysis. […] Data were processed using MassLynx software (Waters) (Fig. S5).
as §1
Experimental conditions for the lyase reaction were identical to the hydroxylation reaction with the following exceptions: 17α-OH pregnenolone (1.5 μM) was used as the substrate, and following extraction, the product of the reaction was derivatized with dansyl hydrazine as described previously.

human P450 17A1 [7] = target: T1, human P450 17A1
P450 17A1 = details: cited from earlier work
human P450 17A1 [8] = target: T2, human P450 17A1 (Homo sapiens, UniProt P05093); experiment: Inhibition as a function of preincubation time with abiraterone, CYP17A1R Bactosomes; assay type: biochemical; details: 50 nM abiraterone, 10 nM P450 17A1 Bactosomes
T2 sequence (P05093 1-508): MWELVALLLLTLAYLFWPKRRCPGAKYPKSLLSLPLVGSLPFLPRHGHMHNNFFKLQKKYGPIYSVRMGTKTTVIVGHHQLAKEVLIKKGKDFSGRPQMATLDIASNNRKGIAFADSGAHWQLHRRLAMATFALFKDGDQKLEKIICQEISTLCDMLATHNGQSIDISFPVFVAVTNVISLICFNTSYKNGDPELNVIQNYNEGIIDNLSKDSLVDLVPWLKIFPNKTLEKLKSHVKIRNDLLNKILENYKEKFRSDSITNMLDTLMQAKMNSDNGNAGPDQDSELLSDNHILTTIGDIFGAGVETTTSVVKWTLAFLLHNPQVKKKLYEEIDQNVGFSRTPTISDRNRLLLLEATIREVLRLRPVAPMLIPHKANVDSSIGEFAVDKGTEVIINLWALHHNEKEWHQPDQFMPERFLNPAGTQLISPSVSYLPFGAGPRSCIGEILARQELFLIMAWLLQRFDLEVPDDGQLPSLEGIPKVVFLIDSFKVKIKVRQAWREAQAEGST
Protocol: These experiments utilized bacterial membranes (CYP17A1R Bactosomes) as the source of P450 and POR. Experiments were done with 10 nM P450 17A1 in reaction volumes of 0.5 ml, with 100 nM b5 added. Abiraterone was added to 50 nM, and then, the reactions were initiated by the addition of an NADPH-generating system supplemented with either 20 μM progesterone (A) or 17α-OH pregnenolone (B) at the indicated times and proceeded for 5 min (at 37 and 23 °C, respectively).
Steady-state kinetic inhibition assays performed with Cypex CYP17A1R Bactosomes followed largely the same procedure with the following exception: the enzymatic system was prepared by preincubating (23 °C) P450 17A1 (CYP17A1R Bactosomes; 10 nM P450), b5 (100 nM), and potassium phosphate buffer (50 mM, pH 7.4) with abiraterone (50 nM) for varying lengths of time (0.25–30 min). Reactions (5 min) were then initiated with the NADPH-generating system described previously and subjected to the same procedure.

human P450 17A1 [9] = target: T1, human P450 17A1; details: 250 nM P450 17A1 and 250 nM inhibitor, 23 °C
[10] = range of other studies, ref Other studies (2) Petrunak et al. 2017
[11] = IC50 (95% CI limits), 17α-OH pregnenolone lyase, steady-state, 0.02 μM P450 17A1, 1.5 μM 17α-OH pregnenolone, 37 °C

Compound | Ratio (17-hydroxylation/lyase) of IC50 (human P450 17A1 [1]; ref (2) Petrunak et al. 2017) | IC50 (human P450 17A1 [1]; ref (2) Petrunak et al. 2017) [µM] | IC50 (human P450 17A1 [2]; ref (2) Petrunak et al. 2017) [µM] | IC50 (human P450 17A1 [4]) [µM] | Ki (human P450 17A1 [4]) [µM] | IC50 (human P450 17A1 [6]; [11]) [µM] | Ki (human P450 17A1 [6]) [µM] | Ratio (17-hydroxylation/lyase) of IC50 (human P450 17A1 [6]) | also measured
CC(C)[C@@](O)(c1ccc2cc(OC(F)F)c(OC(F)F)cc2c1)c1cn[nH]n1 [(R)-Seviteronel] | 2.3 | 5 | 11.3 |  |  |  |  |  | 
C[C@]12CC[C@H](O)CC1=CC[C@@H]1[C@@H]2CC[C@]2(C)C(c3cccnc3)=CC[C@@H]12 [Abiraterone, 17-(3-pyridyl)androsta-5,16-dien-3β-ol] | 2.1 | 0.036 | 0.076 | 0.0032 | 0.0013 | 0.0042 | 0.0034 | 0.76 | Time within which inhibition occurred (human P450 17A1 [3]; Figs. 10, 11 and 13): less than 1 s; Earliest time points at which inhibition was noted (human P450 17A1 [3]; progesterone 17α-hydroxylation, 1 μM abiraterone, 2 μM P450): ≤ 100 ms; Ratio (17-hydroxylation/lyase) of IC50 (human P450 17A1 [1]; [10]): 0.1-1.4; IC50 (human P450 17A1 [1]; [10]): 0.0029 to 0.8 µM; Kd (human P450 17A1 [5]): 0.001 µM; Further spectral changes after formation of final complex (human P450 17A1 [7]; 2 μM P450 17A1 and 2 μM abiraterone, spectra 1 to 57 min after mixing): no further spectral changes were observed over a period of 1 h; koff (P450 17A1): 0.000155 s⁻¹; t1/2 (from koff) (P450 17A1): 5 h; Inhibition of 17α-OH pregnenolone lyase versus preincubation time (human P450 17A1 [8]; 100 nM b5, 20 μM 17α-OH pregnenolone, 23 °C): almost completely inhibited after 15 s; Inhibition of progesterone 17α-hydroxylation versus preincubation time (human P450 17A1 [8]; 100 nM b5, 20 μM progesterone, 37 °C): almost completely inhibited after 15 s
Clc1ccccc1C(c1ccccc1)(c1ccccc1)n1ccnc1 [Clotrimazole] |  |  |  | 0.06 | 0.023 | 0.099 | 0.081 | 0.61 | Ratio (17-hydroxylation/lyase) of IC50 (human P450 17A1 [1]; ref (5) Munkboel et al. 2019): 3.3; IC50 (human P450 17A1 [1]; ref (5) Munkboel et al. 2019): 0.056 µM; IC50 (human P450 17A1 [2]; ref (5) Munkboel et al. 2019): 0.18 µM; Time required for completion of spectral changes on binding (human P450 17A1 [7]; 2 μM P450 17A1 mixed with inhibitor, 23 °C): ~30 s; Lag in recovery of 17α-OH pregnenolone lyase from 1:1 inhibitor complex (human P450 17A1 [9]; 20 μM 17α-OH pregnenolone): Any suggestion of lags is no greater than in the uninhibited reactions; Lag in recovery of progesterone 17α-hydroxylation from 1:1 inhibitor complex (human P450 17A1 [9]; 20 μM progesterone): Any suggestion of lags is no greater than in the uninhibited reactions
C[C@]12CC[C@H](O)CC1=CC[C@@H]1[C@@H]2CC[C@]2(C)C(n3cnc4ccccc43)=CC[C@@H]12 [Galaterone] | 1.3 | 0.1 | 0.13 |  |  |  |  |  | 
CC(C)[C@](O)(c1ccc2cc(OC(F)F)c(OC(F)F)cc2c1)c1c[nH]nn1 [Seviteronel, (S)-Seviteronel] | 2.7 | 0.43 | 1.17 | 3.5 | 1.37 | 3.43 | 2.81 | 1.0 | Ratio (17-hydroxylation/lyase) of IC50 (human P450 17A1 [1]; ref (4) Rafferty et al. 2014): 10; IC50 (human P450 17A1 [1]; ref (4) Rafferty et al. 2014): 0.069 µM; IC50 (human P450 17A1 [2]; ref (4) Rafferty et al. 2014): 0.69 µM; IC50 (human P450 17A1 [6]; This work (Fig. 3, Table 1), read-out: IC50, 17α-OH pregnenolone to DHEA (lyase)): 3.4 µM
CC(C)(C)NC(=O)[C@@H]1CN(Cc2cccnc2)CCN1C[C@@H](O)C[C@@H](Cc1ccccc1)C(=O)N[C@H]1c2ccccc2C[C@H]1O [indinavir] |  |  |  |  |  |  |  |  | Spectral interaction with P450 17A1 (human P450 17A1 [7]): did not show strong enough spectral interaction
CCC(C)n1ncn(-c2ccc(N3CCN(c4ccc(OCC5COC(Cn6cncn6)(c6ccc(Cl)cc6Cl)O5)cc4)CC3)cc2)c1=O (stereo not shown) [itraconazole] |  |  |  |  |  |  |  |  | Spectral interaction with P450 17A1 (human P450 17A1 [7]): did not show strong enough spectral interaction
